“And” between values parts separate entries of the source, which are not always exact repeats. Equal values may be shown once.
Target: PKCα (Homo sapiens, UniProt P17252)
Experiment: [3H]PDBu displacement, 96-well plate filtration binding assay
Conditions: for Displacement assay raw data (CCPM): single replicate wells; for Residual [^3H]PDBu binding to PKCα (% of control): 20 μM compound concentration, mean + SEM, n = 2–8

SMILES: CCCCCCCOc1nc(CO)nc(C(=O)OCc2cccc(C(F)(F)F)c2)c1C [Compound 2j, 3-(trifluoromethyl)benzyl 6-(heptyloxy)-2-(hydroxymethyl)-5-methylpyrimidine-4-carboxylate]
- Displacement assay raw data (CCPM) (0,2 µM test substance): 5070 CCPM and 6403 CCPM and 6171 CCPM and 8628 CCPM and 8277 CCPM and 7942 CCPM
- Displacement assay raw data (CCPM) (1 µM test substance): 5379 CCPM and 6351 CCPM and 6353 CCPM and 8453 CCPM and 7986 CCPM and 7710 CCPM
- Displacement assay raw data (CCPM) (4 µM test substance): 5347 CCPM and 4876 CCPM and 6039 CCPM and 8146 CCPM and 8038 CCPM and 8545 CCPM
- Displacement assay raw data (CCPM) (10 µM test substance): 4978 CCPM and 4910 CCPM and 4651 CCPM and 7817 CCPM and 7871 CCPM and 7636 CCPM
- Residual [^3H]PDBu binding to PKCα (% of control): 87.2 ± 6.0 % of control
- Displacement assay raw data (CCPM) (20 µM test substance): 5492 CCPM and 5042 CCPM and 4393 CCPM and 7145 CCPM and 7596 CCPM and 7314 CCPM
- Displacement assay raw data (CCPM) (30 µM test substance): 4511 CCPM and 5233 CCPM and 4215 CCPM and 6957 CCPM and 7148 CCPM and 7222 CCPM

SMILES: CCCCCCCCOC(=O)c1nc(CO)nc(OCCCCCCCC)c1C [Compound 2c, Octyl 2-(hydroxymethyl)-5-methyl-6-(octyloxy)pyrimidine-4-carboxylate]
- Displacement assay raw data (CCPM) (0,2 µM test substance): 12223 CCPM and 10832 CCPM and 10701 CCPM and 18273 CCPM and 16005 CCPM and 17696 CCPM
- Displacement assay raw data (CCPM) (1 µM test substance): 12118 CCPM and 12391 CCPM and 11284 CCPM and 18079 CCPM and 16200 CCPM and 17048 CCPM
- Displacement assay raw data (CCPM) (4 µM test substance): 10666 CCPM and 10448 CCPM and 9501 CCPM and 18957 CCPM and 15769 CCPM and 16408 CCPM
- Displacement assay raw data (CCPM) (10 µM test substance): 10483 CCPM and 10217 CCPM and 10554 CCPM and 15009 CCPM and 15224 CCPM and 15278 CCPM
- Residual [^3H]PDBu binding to PKCα (% of control): 93.5 ± 6.5 % of control
- Displacement assay raw data (CCPM) (20 µM test substance): 10634 CCPM and 9873 CCPM and 9750 CCPM and 16572 CCPM and 15241 CCPM and 16254 CCPM
- Displacement assay raw data (CCPM) (30 µM test substance): 11684 CCPM and 11210 CCPM and 10063 CCPM and 15855 CCPM and 15398 CCPM and 15526 CCPM

SMILES: CCCCCCCCCCCOC(=O)c1cc(C(=O)OCCCCCCCCCCC)nc(CO)n1 [Compound 1c, Diundecyl 2-(hydroxymethyl)pyrimidine-4,6-dicarboxylate]
- Displacement assay raw data (CCPM) (0,2 µM test substance): 8135 CCPM and 9009 CCPM and 9090 CCPM
- Displacement assay raw data (CCPM) (1 µM test substance): 7374 CCPM and 8410 CCPM and 8950 CCPM
- Displacement assay raw data (CCPM) (4 µM test substance): 8779 CCPM and 7927 CCPM and 8172 CCPM
- Displacement assay raw data (CCPM) (10 µM test substance): 7968 CCPM and 8364 CCPM and 8092 CCPM
- Residual [^3H]PDBu binding to PKCα (% of control): 103.7 ± 5.3 % of control
- Displacement assay raw data (CCPM) (20 µM test substance): 7670 CCPM and 9322 CCPM and 8225 CCPM
- Displacement assay raw data (CCPM) (30 µM test substance): 7089 CCPM and 8399 CCPM and 9539 CCPM

SMILES: CCCCCCCOC(=O)c1cc(C(=O)OCCCCCCC)nc(CO)n1 [Compound 1a, Diheptyl 2-(hydroxymethyl)pyrimidine-4,6-dicarboxylate]
- Displacement assay raw data (CCPM) (0,2 µM test substance): 5564 CCPM and 8472 CCPM and 8055 CCPM and 9131 CCPM and 5172 CCPM and 4908 CCPM
- Displacement assay raw data (CCPM) (1 µM test substance): 5111 CCPM and 8836 CCPM and 8480 CCPM and 8743 CCPM and 5670 CCPM and 5038 CCPM
- Displacement assay raw data (CCPM) (4 µM test substance): 5090 CCPM and 8165 CCPM and 8077 CCPM and 7980 CCPM and 5413 CCPM and 5275 CCPM
- Displacement assay raw data (CCPM) (10 µM test substance): 5789 CCPM and 8577 CCPM and 7653 CCPM and 8759 CCPM and 5036 CCPM and 5595 CCPM
- Residual [^3H]PDBu binding to PKCα (% of control): 94.1 ± 2.4 % of control
- Displacement assay raw data (CCPM) (20 µM test substance): 4889 CCPM and 7960 CCPM and 7787 CCPM and 7605 CCPM and 5228 CCPM and 4729 CCPM
- Displacement assay raw data (CCPM) (30 µM test substance): 4835 CCPM and 7857 CCPM and 7587 CCPM and 5013 CCPM and 5317 CCPM

SMILES: CCCCC(CC)OC(=O)c1cc(C(=O)OC(CC)CCCC)nc(CO)n1 (centres unmarked) [Compound 1e, Di(heptan-3-yl) 2-(hydroxymethyl)pyrimidine-4,6-dicarboxylate]
- Displacement assay raw data (CCPM) (0,2 µM test substance): 5837 CCPM and 9796 CCPM and 9740 CCPM and 9577 CCPM and 6148 CCPM and 6500 CCPM
- Displacement assay raw data (CCPM) (1 µM test substance): 5874 CCPM and 9629 CCPM and 9242 CCPM and 9347 CCPM and 6081 CCPM and 6166 CCPM
- Displacement assay raw data (CCPM) (4 µM test substance): 6376 CCPM and 9023 CCPM and 9333 CCPM and 9667 CCPM and 6505 CCPM and 6158 CCPM
- Displacement assay raw data (CCPM) (10 µM test substance): 5476 CCPM and 8845 CCPM and 9519 CCPM and 8799 CCPM and 5785 CCPM and 5946 CCPM
- Residual [^3H]PDBu binding to PKCα (% of control): 86.7 ± 7.7 % of control
- Displacement assay raw data (CCPM) (20 µM test substance): 5873 CCPM and 9742 CCPM and 7884 CCPM and 7727 CCPM and 6291 CCPM and 6049 CCPM
- Displacement assay raw data (CCPM) (30 µM test substance): 5476 CCPM and 8529 CCPM and 8458 CCPM and 9304 CCPM and 5635 CCPM and 5882 CCPM

SMILES: COC(=O)c1nc(CO)nc(OCc2cccc(C(F)(F)F)c2)c1C [Compound 2g, Methyl 2-(hydroxymethyl)-5-methyl-6-[[3-(trifluoromethyl)benzyl]oxy]pyrimidine-4-carboxylate]
- Displacement assay raw data (CCPM) (0,2 µM test substance): 5444 CCPM and 5572 CCPM and 6419 CCPM and 5626 CCPM and 5372 CCPM and 5082 CCPM
- Displacement assay raw data (CCPM) (1 µM test substance): 5331 CCPM and 5641 CCPM and 6328 CCPM and 5502 CCPM and 5786 CCPM and 5467 CCPM
- Displacement assay raw data (CCPM) (4 µM test substance): 5858 CCPM and 5969 CCPM and 5764 CCPM and 5341 CCPM and 5546 CCPM and 5465 CCPM
- Displacement assay raw data (CCPM) (10 µM test substance): 6071 CCPM and 6111 CCPM and 6173 CCPM and 5469 CCPM and 6077 CCPM and 5316 CCPM
- Residual [^3H]PDBu binding to PKCα (% of control): 106.7 ± 5.0 % of control
- Displacement assay raw data (CCPM) (20 µM test substance): 5096 CCPM and 6099 CCPM and 5970 CCPM and 5477 CCPM and 5384 CCPM and 5474 CCPM
- Displacement assay raw data (CCPM) (30 µM test substance): 5416 CCPM and 5047 CCPM and 5574 CCPM and 5225 CCPM and 5482 CCPM and 5411 CCPM

SMILES: O=C(OCc1cccc(C(F)(F)F)c1)c1cc(CO)cc(C(=O)OCc2cccc(C(F)(F)F)c2)c1 [HMI-1a3, reference compound]
- Residual [^3H]PDBu binding to PKCα (% of control): 54.8 ± 2.6 % of control

SMILES: CCCCC(CC)OC(=O)c1nc(CO)nc(OC(CC)CCCC)c1C (centres unmarked) [Compound 2e, Heptan-3-yl 6-(heptan-3-yloxy)-2-(hydroxymethyl)-5-methylpyrimidine-4-carboxylate]
- Displacement assay raw data (CCPM) (0,2 µM test substance): 13386 CCPM and 12773 CCPM and 11586 CCPM and 9937 CCPM and 11273 CCPM and 11368 CCPM
- Displacement assay raw data (CCPM) (1 µM test substance): 12486 CCPM and 13520 CCPM and 13561 CCPM and 10438 CCPM and 10771 CCPM and 10331 CCPM
- Displacement assay raw data (CCPM) (4 µM test substance): 13244 CCPM and 12192 CCPM and 13129 CCPM and 11362 CCPM and 12373 CCPM and 12221 CCPM
- Displacement assay raw data (CCPM) (10 µM test substance): 12416 CCPM and 12269 CCPM and 12041 CCPM and 10898 CCPM and 11193 CCPM and 10978 CCPM
- Residual [^3H]PDBu binding to PKCα (% of control): 91.4 ± 2.3 % of control
- Displacement assay raw data (CCPM) (20 µM test substance): 11475 CCPM and 10474 CCPM and 10581 CCPM and 9805 CCPM and 9920 CCPM and 10092 CCPM
- Displacement assay raw data (CCPM) (30 µM test substance): 11584 CCPM and 10772 CCPM and 11119 CCPM and 8897 CCPM and 9568 CCPM and 9434 CCPM

SMILES: CCCCCCCCOC(=O)c1cc(C(=O)OCCCCCCCC)nc(CO)n1 [Compound 1b, Dioctyl 2-(hydroxymethyl)pyrimidine-4,6-dicarboxylate]
- Displacement assay raw data (CCPM) (0,2 µM test substance): 7480 CCPM and 1215 CCPM and 1126 CCPM and 1107 CCPM and 7956 CCPM and 7520 CCPM
- Displacement assay raw data (CCPM) (1 µM test substance): 7638 CCPM and 1213 CCPM and 1392 CCPM and 1115 CCPM and 7562 CCPM and 7593 CCPM
- Displacement assay raw data (CCPM) (4 µM test substance): 7531 CCPM and 1201 CCPM and 1408 CCPM and 1101 CCPM and 7673 CCPM and 7303 CCPM
- Displacement assay raw data (CCPM) (10 µM test substance): 7793 CCPM and 1222 CCPM and 1214 CCPM and 1251 CCPM and 7474 CCPM and 6957 CCPM
- Residual [^3H]PDBu binding to PKCα (% of control): 104.8 ± 5.3 % of control
- Displacement assay raw data (CCPM) (20 µM test substance): 8435 CCPM and 1194 CCPM and 1172 CCPM and 1054 CCPM and 8891 CCPM and 9450 CCPM
- Displacement assay raw data (CCPM) (30 µM test substance): 6677 CCPM and 1407 CCPM and 1081 CCPM and 1070 CCPM and 6691 CCPM and 6936 CCPM

SMILES: CCCCCC(CC)OC(=O)c1cc(C(=O)OC(CC)CCCCC)nc(CO)n1 (centres unmarked) [Compound 1f, Di(octan-3-yl) 2-(hydroxymethyl)pyrimidine-4,6-dicarboxylate]
- Displacement assay raw data (CCPM) (0,2 µM test substance): 8395 CCPM and 7761 CCPM and 8223 CCPM
- Displacement assay raw data (CCPM) (1 µM test substance): 8430 CCPM and 8004 CCPM and 8035 CCPM
- Displacement assay raw data (CCPM) (4 µM test substance): 8187 CCPM and 8110 CCPM and 8243 CCPM
- Displacement assay raw data (CCPM) (10 µM test substance): 6268 CCPM and 7306 CCPM and 7650 CCPM
- Residual [^3H]PDBu binding to PKCα (% of control): 88.3 ± 2.7 % of control
- Displacement assay raw data (CCPM) (20 µM test substance): 7244 CCPM and 7065 CCPM and 7340 CCPM
- Displacement assay raw data (CCPM) (30 µM test substance): 7174 CCPM and 7070 CCPM and 7370 CCPM

SMILES: CCCC(CCC)COC(=O)c1nc(CO)nc(OCC(CCC)CCC)c1C [Compound 2d, 2-propylpentyl 2-(hydroxymethyl)-5-methyl-6-[(2-propylpentyl)oxy]pyrimidine-4-carboxylate]
- Displacement assay raw data (CCPM) (0,2 µM test substance): 9740 CCPM and 9459 CCPM and 9651 CCPM and 5569 CCPM and 5686 CCPM and 5559 CCPM
- Displacement assay raw data (CCPM) (1 µM test substance): 7644 CCPM and 9362 CCPM and 9109 CCPM and 5694 CCPM and 5798 CCPM and 6238 CCPM
- Displacement assay raw data (CCPM) (4 µM test substance): 7518 CCPM and 9016 CCPM and 8738 CCPM and 4914 CCPM and 5158 CCPM and 5369 CCPM
- Displacement assay raw data (CCPM) (10 µM test substance): 7586 CCPM and 7877 CCPM and 7985 CCPM and 4832 CCPM and 5595 CCPM and 4913 CCPM
- Residual [^3H]PDBu binding to PKCα (% of control): 89.7 ± 7.1 % of control
- Displacement assay raw data (CCPM) (20 µM test substance): 7408 CCPM and 8501 CCPM and 8368 CCPM and 4542 CCPM and 5847 CCPM and 5492 CCPM
- Displacement assay raw data (CCPM) (30 µM test substance): 8520 CCPM and 7381 CCPM and 8758 CCPM and 5782 CCPM and 4556 CCPM and 4977 CCPM

Reference: publication PMC5895059, “Scaffold hopping from (5-hydroxymethyl) isophthalates to multisubstituted pyrimidines diminishes binding affinity to the C1 domain of protein kinase C” (PLoS ONE, 2018)
